# Patent US7531646B2, “β-D-ribosidase activity indicators with a chromogenic substrate” (priority 2001, dated 2009)
# Columns and labels:
# [1] = test system: Y. enterocolitica; test: Substrate hydrolysis on Columbia agar; type: cell-based; conditions: 300 mg/l, 18 hours
# [2] = test system: Streptococcus agalactiae; test: Substrate hydrolysis on Columbia agar; type: cell-based; conditions: Streptococcus agalactiae NCTC 8181; 300 mg/l; 18 hours
# [3] = test system: Haemolytic streptococcus B; test: Substrate hydrolysis on Columbia agar; type: cell-based; conditions: 300 mg/l, 18 hours
# [4] = test system: P. mirabilis; test: Substrate hydrolysis on Columbia agar; type: cell-based; conditions: 300 mg/l, 18 hours
# [5] = test system: Vibrio hollisae; test: Substrate hydrolysis on Columbia agar; type: cell-based; conditions: Vibrio hollisae NCTC 11640; 300 mg/l; 18 hours
# [6] = test system: Streptococcus sanguis; test: Substrate hydrolysis on Columbia agar; type: cell-based; conditions: Streptococcus sanguis NCTC 7863; 300 mg/l; 18 hours
# [7] = test system: Staphylococcus haemolyticus; test: Substrate hydrolysis on Columbia agar; type: cell-based; conditions: 300 mg/l, 18 hours
# [8] = test system: Bacillus cereus; test: Substrate hydrolysis on Columbia agar; type: cell-based; conditions: Bacillus cereus NCTC; 300 mg/l; 18 hours
# [9] = test system: Gram positive bacteria; test: Substrate hydrolysis on Columbia agar, summary of screen; type: cell-based
# [10] = test system: Providencia alcalifaciens; test: Substrate hydrolysis on Columbia agar; type: cell-based; conditions: 300 mg/l, 18 hours
# [11] = test system: Streptococcus vestibularis; test: Substrate hydrolysis on Columbia agar; type: cell-based; conditions: Streptococcus vestibularis NCTC 12166; 300 mg/l; 18 hours
# [12] = test system: Streptococcus mitis; test: Substrate hydrolysis on Columbia agar; type: cell-based; conditions: Streptococcus mitis NCTC 12261; 300 mg/l; 18 hours
# [13] = test system: Salmonella oranienburg; test: Substrate hydrolysis on Columbia agar; type: cell-based; conditions: Salmonella oranienburg SAX 56; 300 mg/l; 18 hours
# [14] = test system: Streptococcus salivarius; test: Substrate hydrolysis on Columbia agar; type: cell-based; conditions: Streptococcus salivarius NCTC 8618; 300 mg/l; 18 hours
# [15] = test system: Enterococcus faecium; test: Substrate hydrolysis on Columbia agar; type: cell-based; conditions: 300 mg/l, 18 hours
# [16] = test system: Gram negative bacteria; test: Substrate hydrolysis on Columbia agar, summary of screen; type: cell-based
# [17] = test system: Aeromonas hydrophila; test: Substrate hydrolysis on Columbia agar; type: cell-based; parameters: key to the marks not given beside the values; conditions: Aeromonas hydrophila NCTC 8049; 300 mg/l; 18 hours
# [18] = test system: C. diphtheriae; test: Substrate hydrolysis on Columbia agar; type: cell-based, Corynebacterium diphtheriae; conditions: 300 mg/l, 18 hours
# [19] = test system: Haemolytic streptococcus C; test: Substrate hydrolysis on Columbia agar; type: cell-based; conditions: 300 mg/l, 18 hours
# [20] = test system: Vibrio parahaemolyticus; test: Substrate hydrolysis on Columbia agar; type: cell-based; conditions: 300 mg/l, 18 hours
# [21] = test system: Salmonella alachia; test: Substrate hydrolysis on Columbia agar; type: cell-based; conditions: Salmonella alachia SAX 60; 300 mg/l; 18 hours
# Text: (§1) This was achieved using a densitometer.
# (§2) The same method was used as in Example 1.
# [22] = test system: Shigella flexneri; test: Substrate hydrolysis on Columbia agar; type: cell-based; conditions: 300 mg/l, 18 hours
# Text: as §1, §2
# [23] = test system: Shigella sonnei; test: Substrate hydrolysis on Columbia agar; type: cell-based; conditions: 300 mg/l, 18 hours
# Text: as §1, §2
# [24] = test system: Shigella boydii; test: Substrate hydrolysis on Columbia agar; type: cell-based; conditions: 300 mg/l, 18 hours
# Text: as §1, §2
# [25] = test system: Salmonella motevideo; test: Substrate hydrolysis on Columbia agar; type: cell-based; conditions: Salmonella motevideo SAX 55; 300 mg/l; 18 hours
# Text: as §1, §2
# [26] = test system: Vibrio mimicus; test: Substrate hydrolysis on Columbia agar; type: cell-based; conditions: Vibrio mimicus NCTC 11435; 300 mg/l; 18 hours
# Text: as §1, §2
# [27] = test system: A. lwoffii; test: Substrate hydrolysis on Columbia agar; type: cell-based; conditions: A. lwoffii ATCC 15309; 300 mg/l; 18 hours
# [28] = test system: Enterococcus raffinosis; test: Substrate hydrolysis on Columbia agar; type: cell-based; conditions: Enterococcus raffinosis NCTC 13192; 300 mg/l; 18 hours
# [29] = test system: Streptococcus oralis; test: Substrate hydrolysis on Columbia agar; type: cell-based; conditions: Streptococcus oralis NCTC11427; 300 mg/l; 18 hours
# [30] = test system: Serratia spp.; test: Substrate hydrolysis on Columbia agar; type: cell-based; conditions: 300 mg/l, 18 hours
substance,measurement,setting,value
"3′,4′-dihydroxyflavone-4′-β-D-glucopyranoside sodium salt [DHF-glucoside]",Hydrolysis by Gram negative bacteria,[1]; Y. enterocolitica NCTC 10460,−
same,Hydrolysis by Gram negative bacteria,[1]; Y. enterocolitica NCTC 11176,−
same,Hydrolysis by Gram negative bacteria,[1]; Y. enterocolitica NCTC 11177,−
same,Hydrolysis by Gram negative bacteria,[1]; Y. enterocolitica NCTC 11600,−
same,Hydrolysis by Gram positive organisms,[2],−
same,Hydrolysis by Gram positive organisms,[3]; Haemolytic streptococcus B 1,−
same,Hydrolysis by Gram positive organisms,[3]; Haemolytic streptococcus B 2,−
same,Hydrolysis by Gram positive organisms,[3]; Haemolytic streptococcus B 3,−
same,Hydrolysis by Gram negative bacteria,[4]; P. mirabilis NCTC 10975,−
same,Hydrolysis by Gram negative bacteria,[4]; P. mirabilis PMI 1,−
same,Hydrolysis by Gram negative bacteria,[4]; P. mirabilis PMI 2,−
same,Hydrolysis by Gram negative bacteria,[5],−
same,Hydrolysis by Gram positive organisms,[6],−
same,Hydrolysis by Gram positive organisms,[7]; Staphylococcus haemolyticus RB 66,−
same,Hydrolysis by Gram positive organisms,[7]; Staphylococcus haemolyticus RB 67,−
same,Hydrolysis by Gram positive organisms,[7]; Staphylococcus haemolyticus RB 68,−
same,Hydrolysis by Gram positive organisms,[7]; Staphylococcus haemolyticus RB 69,−
same,Hydrolysis by Gram positive organisms,[7]; Staphylococcus haemolyticus RB 70,−
same,Hydrolysis by Gram positive organisms,[8],+
same,colony colour and diffusion,[9]; Strains of Listeria and enterococci,intense black colonies with no diffusion of the black chelate
same,Gram positive bacteria tested that hydrolysed the substrate,"[9]; of 74 Gram positive bacteria tested, 300 mg/l, 18 hours",22.5%
same,Hydrolysis by Gram negative bacteria,[10]; Providencia alcalifaciens PAL 1,+
same,Hydrolysis by Gram negative bacteria,[10]; Providencia alcalifaciens PAL 2,+
same,Hydrolysis by Gram positive organisms,[11],−
same,Hydrolysis by Gram positive organisms,[12],−
same,Hydrolysis by Gram negative bacteria,[13],−
same,Hydrolysis by Gram positive organisms,[14],++
same,Hydrolysis by Gram positive organisms,[15]; Enterococcus faecium 1,++
same,Hydrolysis by Gram positive organisms,[15]; Enterococcus faecium 2,++
same,Hydrolysis by Gram positive organisms,[15]; Enterococcus faecium 3,++
same,Hydrolysis by Gram positive organisms,[15]; Enterococcus faecium 4,++
same,Hydrolysis by Gram positive organisms,[15]; Enterococcus faecium 5,++
same,Hydrolysis by Gram positive organisms,[15]; Enterococcus faecium 6,++
same,Hydrolysis by Gram positive organisms,[15]; Enterococcus faecium 7,++
same,Hydrolysis by Gram positive organisms,[15]; Enterococcus faecium 121285 - wild ′99,++
same,strains known to be producers of β-glucosidase which did not appear to hydrolyse the substrate,[16]; of 120 Gram negative bacteria tested,11 strains
same,Gram negative bacteria tested that hydrolysed the substrate,"[16]; of 120 Gram negative bacteria tested, 300 mg/l, 18 hours",20%
same,colouration and diffusion of positive strains,"[16]; positive Gram negative strains, agar",brown/black colouration which showed no diffusion in agar
same,Hydrolysis by Gram negative bacteria,[17],++
same,Hydrolysis by Gram positive organisms,[18]; C. diphtheriae NCTC 3987,−
same,Hydrolysis by Gram positive organisms,[18]; C. diphtheriae NCTC 10356,−
same,Hydrolysis by Gram positive organisms,[18]; C. diphtheriae NCTC 11397,−
same,Hydrolysis by Gram positive organisms,[18]; Corynebacterium diphtheria NEQAS,−
same,Hydrolysis by Gram positive organisms,[19]; Haemolytic streptococcus C 1,−
same,Hydrolysis by Gram positive organisms,[19]; Haemolytic streptococcus C 67736,−
same,Hydrolysis by Gram positive organisms,[19]; Haemolytic streptococcus C 68350,−
same,Hydrolysis by Gram negative bacteria,[20]; Vibrio parahaemolyticus NCTC 10441,−
same,Hydrolysis by Gram negative bacteria,[20]; Vibrio parahaemolyticus NCTC 10884,−
same,Hydrolysis by Gram negative bacteria,[20]; Vibrio parahaemolyticus NCTC 10903,−
same,Hydrolysis by Gram negative bacteria,[20]; Vibrio parahaemolyticus NCTC 11344,−
same,Hydrolysis by Gram negative bacteria,[20]; Vibrio parahaemolyticus NCTC 12205,−
same,Hydrolysis by Gram negative bacteria,[21],−
same,Hydrolysis by Gram negative bacteria,[22]; Shigella flexneri NCTC 8192,−
same,Hydrolysis by Gram negative bacteria,[22]; Shigella flexneri NCTC 9723,−
same,Hydrolysis by Gram negative bacteria,[22]; Shigella flexneri NCTC 9780,−
same,Hydrolysis by Gram negative bacteria,[23]; Shigella sonnei NCTC 8219,−
same,Hydrolysis by Gram negative bacteria,[23]; Shigella sonnei NCTC 8574,−
same,Hydrolysis by Gram negative bacteria,[23]; Shigella sonnei NCTC 8586,−
same,Hydrolysis by Gram negative bacteria,[23]; Shigella sonnei NCTC 9774,−
same,Hydrolysis by Gram negative bacteria,[23]; Shigella sonnei NCTC 10352,−
same,Hydrolysis by Gram negative bacteria,[24]; Shigella boydii NCTC 9327,−
same,Hydrolysis by Gram negative bacteria,[24]; Shigella boydii NCTC 9732,−
same,Hydrolysis by Gram negative bacteria,[24]; Shigella boydii NCTC 9850,−
same,Hydrolysis by Gram negative bacteria,[25],−
same,Hydrolysis by Gram negative bacteria,[26],−
same,Hydrolysis by Gram negative bacteria,[27],−
same,Hydrolysis by Gram positive organisms,[28],++
same,Hydrolysis by Gram positive organisms,[29],−
same,Hydrolysis by Gram negative bacteria,[30]; Serratia spp. SEX 1,+
same,Hydrolysis by Gram negative bacteria,[30]; Serratia spp. SEX 2,+
